# Results published in PMC4936272 (Bioorganic & medicinal chemistry letters, 2016).
# Key:
# Male ICR mice = test: Mouse tail flick test; assay type: in vivo; details: for Analgesia in tail flick test: 50 mg/kg intraperitoneal (IP); for Analgesia in tail flick test, dose-response: lower doses than 50 mg/kg IP
# FAAH = details: cited from earlier work
# human FAAH = target: T1, human FAAH (Homo sapiens, UniProt O00519); test: Reversibility of FAAH inactivation by exhaustive dialysis; details: 144 hrs dialysis at 4°C after complete inactivation
# T1 sequence (O00519 34-579): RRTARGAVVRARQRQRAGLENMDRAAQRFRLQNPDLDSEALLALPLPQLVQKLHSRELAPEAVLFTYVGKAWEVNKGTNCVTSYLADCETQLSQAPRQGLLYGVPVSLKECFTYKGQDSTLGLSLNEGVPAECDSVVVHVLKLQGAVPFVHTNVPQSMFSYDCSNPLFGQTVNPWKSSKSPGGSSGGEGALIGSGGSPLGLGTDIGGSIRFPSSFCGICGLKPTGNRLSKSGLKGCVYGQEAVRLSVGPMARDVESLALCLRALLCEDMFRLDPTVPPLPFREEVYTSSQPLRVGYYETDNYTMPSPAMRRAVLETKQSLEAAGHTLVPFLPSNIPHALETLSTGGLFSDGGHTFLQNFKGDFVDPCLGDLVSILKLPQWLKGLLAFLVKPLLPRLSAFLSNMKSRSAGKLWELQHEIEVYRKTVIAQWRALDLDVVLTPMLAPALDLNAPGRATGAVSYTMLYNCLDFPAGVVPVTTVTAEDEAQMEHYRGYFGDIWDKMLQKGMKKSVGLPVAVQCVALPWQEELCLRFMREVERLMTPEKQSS
Compound,Analgesia in tail flick test (Male ICR mice),"Analgesia in tail flick test, dose-response (Male ICR mice)",also measured
O=C(Nc1cccnn1)N1CCC(c2nc(C3=NOC(c4ccccc4)C3)cs2)CC1 (stereo not shown) [Compound 2f],significant analgesic effects,failed to produce significant analgesia,
O=C(Nc1cnccn1)N1CCC(c2nc(C3=NOC(c4ccccc4)C3)cs2)CC1 (stereo not shown) [Compound 2e],significant analgesic effects,failed to produce significant analgesia,
O=C(Oc1cccnc1)N1CCC(c2nc(C3=NOC(c4ccccc4)C3)cs2)CC1 (stereo not shown) [Compound 1o],did not produce analgesia,,
O=C(Nc1cccnc1)N1CCC(Cc2cccc(Oc3ccc(C(F)(F)F)cn3)c2)CC1 [PF-3845],,,kinact reported for other chemotypes (FAAH): 0.0033 s⁻¹
N#Cc1ccc(OC(=O)N2CCC(c3nc(C4=NOC(c5ccccc5)C4)cs3)CC2)cc1 (stereo not shown) [Compound 1b],significant analgesic effects,clear dose-dependent effects down to 5 mg/kg,
"O=C(Oc1ccccc1)N1CCC(c2nc(C3=NOC(c4ccccc4)C3)cs2)CC1 (stereo not shown) [Compound 1a, phenyl 4-[4-(4,5-dihydro-5-phenyl-3-isoxazolyl)-2-thiazolyl]-1-piperidinecarboxylate]",significant analgesic effects,failed to produce significant analgesia,
O=C(Nc1ccccc1)N1CCN(c2nc(-c3ccccc3)ns2)CC1 [JNJ-1661010],,,Recovery of FAAH activity after dialysis (human FAAH): ~30%
COc1ccc(OC(=O)N2CCC(c3nc(C4=NOC(c5ccccc5)C4)cs3)CC2)cc1 (stereo not shown) [Compound 1p],did not produce analgesia,,
